Data on 1 molecule can be found in patent publication US10980794B2, “PRMT5 inhibitors and uses thereof” (Epizyme, Inc., priority 2012, dated 2021).

SMILES strings stand for the structures.

Test [1] concerns symmetric di-methyl arginine in Z-138 cells. The experiment in a line: Z-138 Methylation Assay (In Cell Western for symmetric di-methyl arginine and DNA content). The format is cell-based. Particulars: read-out: ICW EC50. An excerpt: [formula] [formula] Where top and bottom are the normally allowed to float, but may be fixed at 100 or 0 respectively in a 3-parameter fit. The Hill Coefficient normally allowed to float but may also be fixed at 1 in a 3-parameter fit. Y is the % inhibition and X is the compound concentration.
RPMI/Glutamax medium, penicillin-streptomycin, heat inactivated fetal bovine serum, and D-PBS were purchased from Life Technologies, Grand Island, N.Y., USA. Odyssey blocking buffer, 800 CW goat anti-rabbit IgG (H+L) antibody, and Licor Odyssey infrared scanner were purchased from Licor Biosciences, Lincoln, Nebr., USA. Symmetric di-methyl arginine antibody was purchased from EMD Millipore, Billerica, Mass., USA. 16% Paraformaldehyde was purchased from Electron Microscopy Sciences, Hatfield, Pa., USA. […]
First, the ratio for each well was determined by:
Each plate included fourteen control wells of DMSO only treatment (minimum inhibition) as well as fourteen control wells for maximum inhibition treated with 3 μM of a reference compound (Background wells). The average of the ratio values for each control type was calculated and used to determine the percent inhibition for each test well in the plate. […] Percent inhibition was determined and IC50 curves were generated using triplicate wells per concentration of compound.

Test [2] has as its system Z-138 cell line. The experiment in a line: Z-138 Proliferation Assay (Cell Titer Glo, 5 days). It counts as cell-based. As to conditions: Z-138 cells. The source says: RPMI/Glutamax medium, penicillin-streptomycin, heat inactivated fetal bovine serum were purchased from Life Technologies, Grand Island, N.Y., USA. V-bottom polypropylene 384-well plates were purchased from Greiner Bio-One, Monroe, N.C., USA. Cell culture 384-well white opaque plates were purchased from Perkin Elmer, Waltham, Mass., USA. Cell-Titer Glo® was purchased from Promega Corporation, Madison, Wis., USA. SpectraMax M5 plate reader was purchased from Molecular Devices LLC, Sunnyvale, Calif., USA.
A compound source plate was prepared by performing triplicate nine-point 3-fold serial dilutions in DMSO, beginning at 10 mM (final top concentration of compound in the assay was 20 μM and the DMSO was 0.2%). A 100 nL aliquot from the compound stock plate was added to its respective well in the cell plate. […] Luminescence was read in the SpectraMax M5 microplate reader. The concentration of compound inhibiting cell viability by 50% was determined using a 4-parametric fit of the normalized dose response curves.
(In ATP-based viability assays light output follows the ATP content of the culture.)

The term EC50 denotes the midpoint of the concentration-response curve. `CN(C[C@H](O)CN1CCc2ccccc2C1)C(=O)c1cc(NC2CCOCC2)ncn1` [Compound 232]: the EC50 in test [1] lay in the range of 0.101 to 1 µM; in test [2] it was 1 to 10 µM.
